Common to all, as to type: biochemical
Test [1] deals with T1, μ-opioid receptor (Homo sapiens (Human), UniProt P35372). In words: μ-opioid receptor [35S]GTPγS functional assay, HEK-293 or CHO cells (Table 4). The note with it: for Emax: relative to DAMGO; for EC50: μ GTP. The protocol: (§1) μ-Opioid Receptor Functional Assay Procedures: [^35S]GTPγS functional assays were conducted using freshly thawed μ-receptor membranes prepared in-house from a cell line expressing recombinant μ opioid receptor in a HEK-293, CHO or U-2 OS cell background, or purchased from a commercial source (Perkin Elmer, Shelton, Conn.; or DiscovRx, Fremont, Calif.). Assay reactions were prepared by sequentially adding the following reagents to binding buffer (100 mM NaCl, 10 mM MgCl2, 20 mM HEPES, pH 7.4) on ice (final concentrations indicated): membrane protein (0.026 mg/mL), saponin ([…]), GDP ([…]) and [^35S]GTPγS (0.20 nM; Perkin Elmer, Shelton, Conn.). The prepared membrane solution (190 μl/well) was transferred to 96-shallow well polypropylene plates containing 10 μl of 20× concentrated stock solutions of the agonist [D-Ala^2, N-methyl-Phe^4 Gly-ol^5]-enkephalin (DAMGO) prepared in dimethyl sulfoxide (DMSO). Plates were incubated for 30 min at about 25° C. with shaking Reactions were terminated by rapid filtration onto 96-well Unifilter GF/B filter plates (Perkin Elmer, Shelton, Conn.) using a 96-well tissue harvester (Perkin Elmer, Shelton, Conn.) followed by three filtration washes with 200 μl of ice-cold wash buffer (10 mM NaH2PO4, 10 mM Na2HPO4, pH 7.4). Filter plates were subsequently dried at 50° C. for 2-3 hours. BetaScint scintillation cocktail (Perkin Elmer, Shelton, Conn.) was added (50 μl/well) and plates were counted using a Packard Top-Count for 1 min/well. Data were analyzed using the sigmoidal dose-response curve fitting functions in GraphPad PRISM v. 3.0, or an in-house function for non-linear, sigmoidal dose-response curve-fitting. [^35S]GTPγS functional assays can also be conducted using freshly thawed μ-receptor membranes prepared from a cell line expressing recombinant μ opioid receptor in a CHO-K1 cell background.
(§2) μ GTP Emax (%) is the maximal effect elicited by a compound relative to the effect elicited by DAMGO, a standard μ agonist.
In TABLE 4, activity response of certain Compounds of the Invention to the μ- and κ-opioid receptors was determined as described above for functional assays using HEK-293 or CHO cells.

The target in test [2] is T1, μ-opioid receptor. In words: μ-opioid receptor [35S]GTPγS functional assay, U-2 OS cells (Table 5). The note with it: for Emax: relative to DAMGO; for EC50: μ GTP. On the procedure: as §1, §2
For another test, the target named is κ-opioid receptor (Homo sapiens (Human), UniProt P41145). In words: κ-opioid receptor [35S]GTPγS functional assay, U-2 OS cells (Table 5). As to conditions: for Emax: relative to U69,593; for EC50: κ GTP. On the procedure: κ-Opioid Receptor Functional Assay Procedures: Functional [^35S]GTPγS binding assays were conducted as follows. κ opioid receptor membrane solution was prepared by sequentially adding final concentrations of 0.026 μg/μl κ membrane protein (in-house), 10 μg/mL saponin, 3 μM GDP and 0.20 nM [^35S]GTPγS to binding buffer (100 mM NaCl, 10 mM MgCl2, 20 mM HEPES, pH 7.4) on ice. The prepared membrane solution (190 μl/well) was transferred to 96-shallow well polypropylene plates containing 10 μl of 20× concentrated stock solutions of agonist prepared in DMSO. Plates were incubated for 30 min at a temperature of about 25° C. with shaking. Reactions were terminated by rapid filtration onto 96-well Unifilter GF/B filter plates (Perkin Elmer, Shelton, Conn.) using a 96-well tissue harvester (Packard) and followed by three filtration washes with 200 μl ice-cold binding buffer (10 mM NaH2PO4, 10 mM Na2HPO4, pH 7.4). Filter plates were subsequently dried at 50° C. for 2-3 hours. Fifty μl/well scintillation cocktail (Perkin Elmer, Shelton, Conn.) was added and plates were counted in a Packard Top-Count for 1 min/well.
κ GTP Emax (%) is the maximal effect elicited by a compound relative to the effect elicited by U69,593.
The following TABLE 5 provides results on the activity response of certain Compounds of the Invention at the μ- and κ-opioid receptors determined as described above using U-2 OS cells.
For orientation: Binding of GTPγS marks nucleotide exchange on a G protein.

Each structure is given as a SMILES string. Some results are limits rather than exact numbers.

Emax and EC50 data for 15 compounds are collected here from US9656962B2, “Ring-contracted morphinans and the use thereof” (Purdue Pharma L.P., priority 2013, dated 2017).

With `Oc1ccc2c(c1)C13CCN(CC4CC4)[C@H](C2)[C@]1(O)C[C@H](N(Cc1ccccc1)Cc1ccccc1)C3` (stereo in doubt) [Compound 81, (2R,3aS,4R,9bS)-12-(cyclopropyl-methyl)-2-(dibenzylamino)-2,3,4,5-tetrahydro-4,9b-(epiminoethano)-cyclopenta-[a]naphthalene-3a,8(1H)-diol], the maximum response (Emax) on μ-opioid receptor [1] was 19 ± 1.53%. The half-maximal effective concentration (EC50) on μ-opioid receptor [1] (bound given in μM) was > 20 µM.
The matching figures for `O=C([C@H]1C[C@]23CCN(CC4CC4)[C@H](Cc4ccc(O)cc42)[C@]3(O)C1)N1CCS(=O)(=O)CC1` [Compound 94, ((2S,3aS,4R,9bS)-12-(cyclopropylmethyl)-3a,8-dihydroxy-1,2,3,3a,4,5-hexahydro-4,9b-(epiminoethano)cyclopenta-[a]naphthalen-2-yl)(1,1-dioxido-thiomorpholino)methanone]: 10.6 ± 3.41% and > 20 µM.
In turn, `O=C(NCc1cccnc1)[C@@H]1C[C@]23CCN(CC4CC4)[C@H](Cc4ccc(O)cc42)[C@]3(O)C1` [Compound 89, (2R,3aS,4R,9bS)-12-(cyclopropylmethyl)-3a,8-dihydroxy-N-(pyridin-3-ylmethyl)-1,2,3,3a,4,5-hexahydro-4,9b-(epimino-ethano)cyclopenta[a]naphthalene-2-carboxamide] registered an Emax at μ-opioid receptor [1] of 4.5%. Besides, at μ-opioid receptor [1] (bound given in μM), the 50% effective concentration (EC50) was > 20 µM.
In turn, `O=C([C@@H]1C[C@]23CCN(CC4CC4)[C@H](Cc4ccc(O)cc42)[C@]3(O)C1)N1CCSCC1` [Compound 87, ((2R,3aS,4R,9bS)-12-(cyclopropylmethyl)-3a,8-dihydroxy-1,2,3,3a,4,5-hexahydro-4,9b-(epiminoethano)cyclopenta-[a]naphthalen-2-yl)(thiomorpholino)-methanone] came in with an Emax at μ-opioid receptor [1] of 1%. Further, at μ-opioid receptor [1] (bound given in μM), the half-maximal effective concentration (EC50) is > 20 µM.
On μ-opioid receptor [1], `O=C([C@@H]1C[C@]23CCN(CC4CC4)[C@H](Cc4ccc(O)cc42)[C@]3(O)C1)N1CCN(c2ccccc2)CC1` [Compound 86, ((2R,3aS,4R,9bS)-12-(cyclopropylmethyl)-3a,8-dihydroxy-1,2,3,3a,4,5-hexahydro-4,9b-(epiminoethano)cyclopenta-[a]naphthalen-2-yl)(4-phenylpiperazin-1-yl)methanone] registered an Emax of 12.8 ± 0.63% and an EC50 of 0.0288 ± 0.0105 µM.
In the same order, the values of `O=C(NCCN1CCOCC1)[C@@H]1C[C@]23CCN(CC4CC4)[C@H](Cc4ccc(O)cc42)[C@]3(O)C1` [Compound 84, (2R,3aS,4R,9bS)-12-(cyclopropyl-methyl)-3a,8-dihydroxy-N-(2-morpholinoethyl)-1,2,3,3a,4,5-hexahydro-4,9b-(epimino-ethano)cyclopenta[a]naphthalene-2-carboxamide] are 19.7 ± 1.67% and 0.0717 ± 0.0237 µM.
Consider `NC(=O)[C@H]1C[C@]23CCN(CC(F)(F)F)[C@H](Cc4ccc(O)cc42)[C@]3(O)C1` [Compound 76, (2S,3aS,4R,9bS)-3a,8-dihydroxy-12-(2,2,2-trifluoroethyl)-1,2,3,3a,4,5-hexahydro-4,9b-(epiminoethano)cyclo-penta[a]naphthalene-2-carboxamide], for which the maximal effect (Emax) on μ-opioid receptor [2] was found to be 2%; on κ-opioid receptor it was 81 ± 6.66%. Also, the 50% effective concentration (EC50) was > 20 µM at μ-opioid receptor [2] (bound given in μM) and 923 ± 31.9 nM on κ-opioid receptor.
For `COc1ccc2c(c1)[C@]13CCN(CC4CC4)[C@H](C2)[C@]1(O)C[C@H](C(=O)O)C3` [Compound 14, (2R,3aS,4R,9bS)-12-(cyclopropylmethyl)-3a-hydroxy-8-methoxy-1,2,3,3a,4,5-hexahydro-4,9b-(epiminoethano)-cyclopenta[a]naphthalene-2-carboxylic acid], on μ-opioid receptor [2], the Emax was determined as 26.7 ± 2.4% and a half-maximal effect (EC50) was put at 0.126 ± 0.0377 µM. For the same compound, at κ-opioid receptor, the maximal response (Emax) worked out at 100 ± 2.52% and it took 147 ± 11.6 nM to reach a half-maximal effect (EC50).
For the compound `O=C([C@@H]1C[C@]23CCN(CC4CC4)[C@H](Cc4ccc(O)cc42)[C@]3(O)C1)N1CCOCC1` [Compound 58, ((2R,3aS,4R,9bS)-12-(cyclopropylmethyl)-3a,8-dihydroxy-1,2,3,3a,4,5-hexahydro-4,9b-(epiminoethano)cyclopenta-[a]naphthalen-2-yl)(morpholino)-methanone], at μ-opioid receptor [2], the Emax turned out to be 21.7 ± 5.49% and the concentration giving a half-maximal response (EC50) was found to be 0.0143 ± 0.00543 µM. Moreover, at κ-opioid receptor, the Emax is 93.7 ± 4.48% and the response was half-maximal at 24.3 ± 5.67 nM (EC50).
On to `O=C(NCCc1ccccc1)[C@@H]1C[C@]23CCN(CC4CC4)[C@H](Cc4ccc(O)cc42)[C@]3(O)C1` [Compound 50, (2R,3aS,4R,9bS)-12-(cyclopropylmethyl)-3a,8-dihydroxy-N-phenethyl-1,2,3,3a,4,5-hexahydro-4,9b-(epiminoethano)-cyclopenta[a]naphthalene-2-carboxamide], for which the Emax was 23.3 ± 1.86% on μ-opioid receptor [2] and 107.7 ± 0.88% on κ-opioid receptor. For the same compound, the concentration giving a half-maximal response (EC50) worked out at 0.0069 ± 0.00054 µM on μ-opioid receptor [2] and 1.95 ± 0.33 nM at κ-opioid receptor.
For `O=C(NCc1ccc(Cl)cc1Cl)[C@@H]1C[C@]23CCN(CC4CC4)[C@H](Cc4ccc(O)cc42)[C@]3(O)C1` [Compound 44, (2R,3aS,4R,9bS)-12-(cyclopropylmethyl)-N-(2,4-dichlorobenzyl)-3a,8-dihydroxy-1,2,3,3a,4,5-hexahydro-4,9b-(epimino-ethano)cyclopenta[a]naphthalene-2-carboxamide], the figures for the maximal response (Emax) on μ-opioid receptor [2] and at κ-opioid receptor were 28.3 ± 1.86% and 94.7 ± 7.13%, respectively. Also, the figures for the half-maximal effective concentration (EC50) at μ-opioid receptor [2] and at κ-opioid receptor were 0.00375 ± 0.00035 µM and 0.26 ± 0.033 nM, respectively.
On to `CC(C)CNC(=O)[C@@H]1C[C@]23CCN(CC4CC4)[C@H](Cc4ccc(O)cc42)[C@]3(O)C1` [Compound 35, (2R,3aS,4R,9bS)-12-(cyclopropylmethyl)-3a,8-dihydroxy-N-isobutyl-1,2,3,3a,4,5-hexahydro-4,9b-(epiminoethano)cyclo-penta[a]naphthalene-2-carboxamide], for which, at μ-opioid receptor [2], the maximal response (Emax) was 29.7 ± 0.33% and the EC50 amounted to 0.0197 ± 0.00527 µM. On κ-opioid receptor, this compound displayed a maximum response (Emax) of 111 ± 2.96% and a 50% effective concentration (EC50) of 7.75 ± 0.41 nM.
On μ-opioid receptor [2], `CN(CC(=O)O)C(=O)[C@@H]1C[C@]23CCN(CC4CC4)[C@H](Cc4ccc(O)cc42)[C@]3(O)C1` [Compound 66, 2-((2R,3aS,4R,9bS)-12-(cyclopropyl-methyl)-3a,8-dihydroxy-N-methyl-1,2,3,3a,4,5-hexahydro-4,9b-(epiminoethano)cyclopenta[a]naphthalene-2-carboxamido)acetic acid] yielded an Emax of 15.5 ± 1.5% and a concentration giving a half-maximal response (EC50) of 0.029 ± 0.00429 µM. Moreover, on κ-opioid receptor, the Emax stood at 77.3 ± 0.88% and the response was half-maximal at 168 ± 8.15 nM (EC50).
In the case of `NC(=O)[C@@H]1C[C@]23CCN(CC(F)(F)F)[C@H](Cc4ccc(O)cc42)[C@]3(O)C1` [Compound 75, (2R,3aS,4R,9bS)-3a,8-dihydroxy-12-(2,2,2-tritluoroethyl)-1,2,3,3a,4,5-hexahydro-4,9b-(epiminoethano)cyclo-penta[a]naphthalene-2-carboxamide], the Emax at μ-opioid receptor [2] was 2%; on κ-opioid receptor, 69 ± 6.03%. For the same compound, the values for the EC50 on μ-opioid receptor [2] (bound given in μM) and at κ-opioid receptor were > 20 µM and 1260 ± 74.6 nM, respectively.
On to `COc1ccc2c(c1)[C@]13CCN(CC4CC4)[C@H](C2)[C@]1(O)C[C@H](C(=O)N1CCCC1)C3` [Compound 19, ((2R,3aS,4R,9bS)-12-(cyclopropylmethyl)-3a-hydroxy-8-methoxy-1,2,3,3a,4,5-hexahydro-4,9b-(epiminoethano)cyclo-penta[a]naphthalene-2-yl)(pyrrolidin-1-yl)methanone], for which the maximal response (Emax) was 29.3 ± 5.93% at μ-opioid receptor [2] and 97.7 ± 0.67% at κ-opioid receptor. Besides, the EC50 turned out to be 2.96 ± 0.864 µM on μ-opioid receptor [2] and 4720 ± 150 nM on κ-opioid receptor.

As a reminder, the Emax is the greatest response seen or fitted, relative to the assay's reference. As usually defined, the EC50 is the concentration needed to bring the measured effect to its halfway point.
